Assay: Inhibition of mouse GAT2 expressed in HEK293 cells assessed as reduction in [3H]GABA uptake preincubated for 25 mins followed by [3H]GABA addition and measured after 10 mins by liquid scintillation counting method

IC50: 53.7 µM
Structure (SMILES): O=C(O)C1CCN(CCON=Cc2ccccc2-c2ccc(Cl)cc2Cl)C1 (stereo unspecified)
